Source: paper PMC11161644, “An effective and rapidly degradable disinfectant from disinfection byproducts” (Nature Communications, 2024)
Where “and” joins values, the source holds several entries; their conditions need not be identical. Equal values may be shown once. Read-outs that look alike come from different tables or passages of the source.

How the values were obtained:
S. aureus (ATCC 25923) = test: Inactivation of S. aureus (contact time 5 min); assay type: cell-based, Staphylococcus aureus; details: Staphylococcus aureus, ATCC25923, 5 min, pH 7.2, read-out: Log (N/N0), S. aureus; dose 300 mg L-1; pH 7.2; contact time 5 min
Description: (§1) The chemicals and reagents used are detailed in Supplementary Note 1. The bacteria E. coli (ATCC 25922) and S. aureus (ATCC 25923) were cultured aerobically in Luria-Bertani broth (Sigma-Aldrich) and Tryptone Soya broth (Oxoid), respectively, at 37 °C for 16 h. The fungus C. albicans (ATCC 14053) was aerobically cultured in Sabouraud Dextrose broth (Difco) at 37 °C for 24 h. The microorganism cells were harvested by centrifugation at 1200×g (10 min, 4 °C) and resuspended in phosphate-buffered saline (PBS, 10 mM, pH 7.2). The disinfection experiments were performed in PBS solutions (10 mM, pH 7.2) with an initial concentration of E. coli, S. aureus, or C. albicans of 10^6‒10^7 cells per milliliter. A contact time of 5 min was used in accordance with the recommended time range of 0.25–10 min by USEPA for surface disinfection. Preliminary tests were conducted to determine the appropriate range of DBP doses. The appropriate dose range was established when the lowest and highest doses could achieve <1-log and >3-log of microbial inactivation, respectively. Based on the preliminary results, a series of doses of DBPs were added to the cell suspensions at room temperature (22 ± 1 °C). After the contact time of 5 min, the microorganism cells were enumerated following a membrane filter method. Briefly, serial 10-fold dilutions were conducted for the disinfected samples and the control sample without disinfection. Each diluted suspension was subjected to filtration through 0.45-μm membrane, which was then placed on a petri dish. The Petri dishes containing E. coli, S. aureus, and C. albicans were incubated in m-FC medium (Becton Dickinson & Co) at 45 °C for 24 h, in Tryptone Soya broth at 37 °C for 24 h and in Sabouraud Dextrose broth at 37 °C for 24 h, respectively. After incubation, the colony-forming units within a statistically reasonable range (20–80) were counted.

P. dumerilii embryos = test: Developmental toxicity assay with P. dumerilii embryos, dilution factor of in-use concentration (EC50,DF), also after degradation in darkness; assay type: in vivo, Platynereis dumerilii
Description: The DBP doses for 3-log E. coli reduction (pH 7.2) were set as the in-use concentrations, which were serially diluted and added to the P. dumerilii embryos at 12-h postfertilization. A dilution factor was defined as the ratio of the in-use concentration to the exposure concentration. Each exposure set contained a control sample (i.e., the embryos at 12-h postfertilization developed in seawater without the addition of DBPs). By 24-h postfertilization, normally developed embryos should have reached the first larval stage. An inverted stereomicroscope (×40 magnification) was used to observe the larvae. The normal development percentage was calculated as the ratio of normally developed embryos to total embryos. By plotting the curve of the normal development percentage versus the dilution factor, the EC50,DF value (i.e., the dilution factor corresponding to 50% of the normal development percentage of the control sample) was obtained using SigmaPlot 12. The developmental toxicity test was conducted in duplicate.

[1] = Degradation in seawater in darkness (pH 6.2, 7.2, 8.2); details: for Ln (C/C0): seawater pH 8.2, darkness
Description: To study the DBP degradation in seawater in darkness, a DBP was added at 10 mg L^−1 to 50 mL pretreated seawater (pH 8.2) in the quartz flasks. The flasks were wrapped with aluminum foil to simulate the dark condition. The samples were kept at 20 °C in darkness for 0‒120 h, during which the sample was adjusted to pH 6.2 and 7.2 or maintained at pH 8.2 by adding 4 mM phosphate buffer (pH 6.2, 7.2, and 8.2, respectively).
(§2) For the DBP samples with and without sunlight, aliquots were taken at a specific reaction time. The sample aliquots were analyzed using Agilent high-performance liquid chromatography (HPLC) equipped with a Poroshell 120 EC-C18 column (4.6 × 150 mm, 4 µm particle size, Agilent) and a UV detector. The mobile phase, consisting of water (pre-adjusted to pH 2 with phosphoric acid) and acetonitrile at 50/50 (v/v), was applied at a flow rate of 1.0 mL min^−1. PCMX, 2,4-dihalophenols and 5-halosalicylic acids were detected at the wavelength of 230 nm. 2,5-Dihalohydroquinones and 2,6-DCQ were detected at the wavelength of 280 nm. All the degradation experiments were conducted in duplicate.

[2] = Degradation in seawater with simulated solar irradiation; details: for half-life at 10 mg L−1: buffer, pH 8.2; for Ln (C/C0): seawater pH 8.2, solar irradiation
Description: The solar photolysis experiments were conducted in a chamber equipped with eight simulated sunlight full-spectrum lamps (BlueMax 5900, Full Spectrum Solutions). The temperature in the chamber was maintained at 20 °C. The total intensity of simulated sunlight was determined using a digital photometer (DT-1010B, Shenzhen Golden Octopus, China). Quartz flasks were positioned in the chamber where the total intensity of simulated sunlight was 4.79 ± 0.04 mW cm^−2 for each quartz flask. […] A DBP was added at 10 mg L^−1 to 50 mL pretreated seawater (pH 8.2) in the quartz flasks and exposed to the simulated solar irradiation for 0‒96 h. Every 8 h, the quartz flasks were rotated in and out of the chamber, and the sample volume was determined and adjusted with ultrapure water to account for any water evaporation. During the solar irradiation experiments, the sample was adjusted to pH 6.2 and 7.2 or maintained at pH 8.2 by adding 4 mM phosphate buffer (pH 6.2, 7.2, and 8.2, respectively).
as §2

E. coli (ATCC 25922) = test: Inactivation of E. coli by disinfectants (membrane filter enumeration, contact time 5 min); assay type: cell-based, Escherichia coli; details: for log reduction at 1200 µg/mL / EC (3-log inactivation) / log reduction at 350 µg/mL: Escherichia coli, ATCC25922, 5 min; for log reduction at 1200 µg/mL: dose 1200 mg L-1; for log reduction at 1200 µg/mL / log reduction at 350 µg/mL: 5 min; for EC (3-log inactivation): pH 7.2, read-out: Dose for achieving 3-log inactivation of E. coli; for E. coli inactivation rate constant k: pH 7.2, contact time 5 min; for log reduction at 350 µg/mL: dose 350 mg L-1
Description: as §1
The impact of pH on the disinfection efficiencies of DBPs was examined. E. coli (ATCC 25922) was used as the test strain. The disinfection experiments were performed in 10 mM PBS solutions (pH 6.2, 7.2, and 8.2) with an initial E. coli concentration of 10^6‒10^7 cells per milliliter. To initiate the disinfection, a DBP was dosed with a bacteria suspension at a predetermined concentration. After the given contact time (5 min) at room temperature (22 ± 1 °C), the bacteria were enumerated following the membrane filter method. The bacteria concentrations in the 10 mM PBS solutions (pH 6.2, 7.2, and 8.2) without the addition of DBPs were used as controls.

[3] = system: bacteriophage MS2 (ATCC 15597-B1); test: Inactivation of bacteriophage MS2 (double-layer agar, contact time 5 min); assay type: cell-based; details: Escherichia phage MS2, ATCC15597, 5 min, pH 7.2, read-out: Log (N/N0), MS2; dose 300 mg L-1; pH 7.2; contact time 5 min
Description: The bacteriophage MS2 (ATCC 15597-B1) was propagated in the host E. coli (ATCC 15597) in Tryptone Soya broth at 37 °C for 16 h. The viruses were separated from the bacterial debris and purified by centrifuging the phage culture (4000×g, 10 min, 4 °C) and filtering the lysate with a 0.2 μm polyethersulfone sterile filter. The filtrate was then diluted in PBS (10 mM, pH 7.2) to an initial MS2 concentration of 10^9‒10^10 plaque-forming units […]. To initiate the disinfection experiments, a series of DBP doses were added to the MS2 suspension at room temperature (22 ± 1 °C). […] Briefly, serial 10-fold dilutions were conducted for the disinfected samples and the control sample without disinfection. Each dilution was mixed with the host E. coli in the soft agar and the mixture was immediately spread onto a Petri dish with Tryptone Soya agar. After the Petri dishes were incubated at 37 °C for 16 h, the plaque-forming units were counted. The disinfection experiments were performed in duplicate. All the materials for the disinfection experiments were autoclaved before use.

C. albicans (ATCC 14053) = test: Inactivation of C. albicans (contact time 5 min); assay type: cell-based, Candida albicans; details: Candida albicans, ATCC14053, 5 min, pH 7.2, read-out: Log (N/N0), C. albicans; dose 300 mg L-1; pH 7.2; contact time 5 min
Description: as §1

[4] = pH 6.2, read-out: Log (N/N0), E. coli, pH 6.2
[5] = pH 7.2, read-out: Log (N/N0), E. coli, pH 7.2
[6] = pH 8.2, read-out: Log (N/N0), E. coli, pH 8.2

In the case of `Oc1cc(Cl)c(O)cc1Cl` [2,5-DCHQ, 2,5-dichlorohydroquinone], the log reduction at 300 µg/mL (S. aureus (ATCC 25923)) was 0.434, the “Normal development (%)” value (P. dumerilii embryos; dilution factor 557.542) was 8.642% and 6.061% and the “Normal development (%)” value (P. dumerilii embryos; dilution factor 1115.08) was 42.6369% and 40.0555%. The “Normal development (%)” value (P. dumerilii embryos; dilution factor 1393.85) was 77.0891% and 77.2417%, the “Normal development (%)” value (P. dumerilii embryos; dilution factor 2787.71) was 85.5556% and 87.7778% and the “Normal development (%)” value (P. dumerilii embryos; dilution factor 5575.42) was 88.6789% and 83.1961%. For the same compound, the half-life at 10 mg L−1 ([1]; buffer, pH 8.2) was 7.8 min, the “Relative concentration remaining (1 at 0 min)” value ([1]; pH 6.2, degradation time 0 min) was 1 and the “Relative concentration remaining (1 at 0 min)” value ([1]; pH 6.2, degradation time 15 min) was 1.022 and 0.9793. For the same compound, the “Relative concentration remaining (1 at 0 min)” value ([1]; pH 6.2, degradation time 30 min) was 0.9852 and 1.003, the “Relative concentration remaining (1 at 0 min)” value ([1]; pH 6.2, degradation time 60 min) was 1.02 and 0.9636 and the “Relative concentration remaining (1 at 0 min)” value ([1]; pH 6.2, degradation time 90 min) was 0.9949 and 0.9533. The “Relative concentration remaining (1 at 0 min)” value ([1]; pH 6.2, degradation time 120 min) was 0.9685 and 0.9533, the “Relative concentration remaining (1 at 0 min)” value ([1]; pH 6.2, degradation time 180 min) was 0.9436 and 0.9061 and the “Relative concentration remaining (1 at 0 min)” value ([1]; pH 6.2, degradation time 240 min) was 0.9109 and 0.8967. For the same compound, the “Relative concentration remaining (1 at 0 min)” value ([1]; pH 7.2, degradation time 0 min) was 1, the “Relative concentration remaining (1 at 0 min)” value ([1]; pH 7.2, degradation time 15 min) was 0.972 and 0.958 and the “Relative concentration remaining (1 at 0 min)” value ([1]; pH 7.2, degradation time 30 min) was 0.8774 and 0.8538. For the same compound, the “Relative concentration remaining (1 at 0 min)” value ([1]; pH 7.2, degradation time 45 min) was 0.7996 and 0.7512, the “Relative concentration remaining (1 at 0 min)” value ([1]; pH 7.2, degradation time 60 min) was 0.6873 and 0.677 and the “Relative concentration remaining (1 at 0 min)” value ([1]; pH 7.2, degradation time 90 min) was 0.5344 and 0.5155. The “Relative concentration remaining (1 at 0 min)” value ([1]; pH 7.2, degradation time 120 min) was 0.3928 and 0.369, the “Relative concentration remaining (1 at 0 min)” value ([1]; pH 7.2, degradation time 180 min) was 0.2793 and 0.2513 and the “Relative concentration remaining (1 at 0 min)” value ([1]; pH 8.2, degradation time 0 min) was 1. The “Relative concentration remaining (1 at 0 min)” value ([1]; pH 8.2, degradation time 3 min) was 0.7671 and 0.7343, the “Relative concentration remaining (1 at 0 min)” value ([1]; pH 8.2, degradation time 8 min) was 0.4955 and 0.4354 and the “Relative concentration remaining (1 at 0 min)” value ([1]; pH 8.2, degradation time 12 min) was 0.3245 and 0.3105. The “Relative concentration remaining (1 at 0 min)” value ([1]; pH 8.2, degradation time 16 min) was 0.2259 and 0.2074, the “Relative concentration remaining (1 at 0 min)” value ([1]; pH 8.2, degradation time 20 min) was 0.1584 and 0.1371 and the “Relative concentration remaining (1 at 0 min)” value ([1]; pH 8.2, degradation time 25 min) was 0.1047 and 0.0786. The “Ln (C/C0)” value ([1]; 0 min) was 0, the half-life at 10 mg L−1 [2] was 0.12 h and the “Ln (C/C0)” value ([2]; 0 min) was 0. The log reduction at 1200 µg/mL (E. coli (ATCC 25922); [4]) was 2.28, the EC (3-log inactivation) (E. coli (ATCC 25922)) was 946 µg/mL and the log reduction at 1200 µg/mL (E. coli (ATCC 25922); [5]) was 3.73. The log reduction at 1200 µg/mL (E. coli (ATCC 25922); [6]) was 4.18 and the “E. coli inactivation rate constant k” value (E. coli (ATCC 25922)) was 0.05 L mg‒1 h‒1.
With `Oc1ccc(Br)cc1Br` [2,4-DBPh, 2,4-dibromophenol] the log reduction at 300 µg/mL (S. aureus (ATCC 25923)) was 0.669, the “Normal development (%)” value (P. dumerilii embryos; dilution factor 11.1486) was 0% and the “Normal development (%)” value (P. dumerilii embryos; dilution factor 13.3783) was 15.2624% and 20.2196%. The “Normal development (%)” value (P. dumerilii embryos; dilution factor 16.7229) was 45.6306% and 47.4814%, the “Normal development (%)” value (P. dumerilii embryos; dilution factor 22.2972) was 71.5034% and 77.6566% and the “Normal development (%)” value (P. dumerilii embryos; dilution factor 33.4458) was 83.2326% and 85.1374%. The “Normal development (%)” value (P. dumerilii embryos; dilution factor 66.8916) was 89.9171% and 84.7809%, the “Normal development (%)” value (P. dumerilii embryos; dilution factor 133.783) was 89.4695% and 80.5305% and the log reduction at 300 µg/mL [3] was 0.966. The “Ln (C/C0)” value ([1]; 0 h) was 0, the half-life at 10 mg L−1 [2] was 35 h and the “Ln (C/C0)” value ([2]; 0 h) was 0. For the same compound, the log reduction at 300 µg/mL (C. albicans (ATCC 14053)) was 1.67, the log reduction at 350 µg/mL (E. coli (ATCC 25922); [4]) was 3.35 and the EC (3-log inactivation) (E. coli (ATCC 25922)) was 341 µg/mL. For the same compound, the log reduction at 350 µg/mL (E. coli (ATCC 25922); [5]) was 3.26, the log reduction at 350 µg/mL (E. coli (ATCC 25922); [6]) was 3.57 and the “E. coli inactivation rate constant k” value (E. coli (ATCC 25922)) was 0.28 L mg‒1 h‒1.
